Test results reported in patent publication US11753407B2, “Compounds for treating spinal muscular atrophy” (PTC Therapeutics, Inc., priority 2012, dated 2023).

What was measured:
[1] = system: SMN2 minigene mRNA (SMN2-A minigene) in HEK293H cells; assay: SMN2 minigene mRNA splicing RT-qPCR assay in cultured cells; format: cell-based, human; settings: Homo sapiens, HEK293-H; concentration increasing full length SMN2 mRNA 1.5-fold relative to vehicle-treated cells; HEK293H cells with SMN2-A minigene, 24 hours, 7-point concentration data; read-out: EC1.5x for production of full length SMN2 mRNA
Procedure, shortened: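 EC1.5× values derive from a 24 h treatment of SMN2-A minigene HEK293H cells and GAPDH-normalized RT-qPCR of exon 7-included minigene mRNA relative to vehicle-treated cells.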

[2] = system: Smn protein in SMA patient fibroblast cells (GM03813); assay: Smn protein assay in cultured cells (SMN HTRF); format: cell-based, human; settings: SMA patient fibroblast cells, 48 hours; for maximum fold (Fold) increase of Smn protein: 7-point concentration data, fold relative to vehicle control; for EC1.5x for Smn protein expression: 7-point concentration curve, SMN HTRF, concentration producing 1.5 times Smn protein vs DMSO vehicle control
Procedure, shortened: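 Cells were cultured 72 h, seeded at 5,000/well and dosed with seven concentrations (3.16-fold apart) for 48 h. HTRF on lysates, read at 665 and 620 nm, gave blank-corrected ΔF values relative to DMSO. Potency is reported as EC1.5×, efficacy as maximal fold Smn increase.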

SMILES | EC (1.5-fold increase) [1] | maximum fold (Fold) increase of Smn protein [2] | EC1.5x for Smn protein expression [2]
COc1ccc(-c2cc(=O)n3cc(N4CCNC[C@H]4C)ccc3n2)cc1OC [Compound 321, 2-(3,4-dimethoxyphenyl)-7-[(2R)-2-methylpiperazin-1-yl]-4H-pyrido[1,2-a]pyrimidin-4-one] | 1 to 3 µM | *** (a fold increase between >1.35 and ≤1.5 is indicated by three stars (***)) | 
Cc1nc2ccc(-c3cc(=O)n4cc(N5CCN(C)CC5)ccc4c3)cc2o1 [Compound 323, 2-(2-methyl-1,3-benzoxazol-6-yl)-7-(4-methylpiperazin-1-yl)-4H-quinolizin-4-one] | 0.1 to 0.3 µM | *** (a fold increase between >1.35 and ≤1.5 is indicated by three stars (***)) | ** (an EC1.5× between >1 μM and ≤3 μM is indicated by two stars (**))
Cc1cn2nc(-c3cc(=O)n4cc(N5CCN[C@H](C)C5)ccc4n3)cc2c(C)n1 [Compound 335, 2-(4,6-dimethylpyrazolo[1,5-a]pyrazin-2-yl)-7-[(3R)-3-methylpiperazin-1-yl]-4H-pyrido[1,2-a]pyrimidin-4-one] | < 0.1 µM | ***** (a fold increase >1.65 is indicated by five stars (*****)) | **** (an EC1.5x≤0.3 μM is indicated by four stars (****))
CCN1CCN(c2ccc3nc(-c4cc5c(C)nc(C)cn5n4)cc(=O)n3c2)C[C@H]1C [Compound 343, 2-(4,6-dimethylpyrazolo[1,5-a]pyrazin-2-yl)-7-[(3R)-4-ethyl-3-methylpiperazin-1-yl]-4H-pyrido[1,2-a]pyrimidin-4-one] | < 0.1 µM | ***** (a fold increase >1.65 is indicated by five stars (*****)) | **** (an EC1.5x≤0.3 μM is indicated by four stars (****))
Cc1nc2cc(-c3cc(=O)n4cc(N5C[C@H]6CNC[C@H]6C5)ccc4n3)ccc2s1 [Compound 349, 7-[(3aR,6aS)-hexahydropyrrolo[3,4-c]pyrrol-2(1H)-yl]-2-(2-methyl-1,3-benzothiazol-5-yl)-4H-pyrido[1,2-a]pyrimidin-4-one] | < 0.1 µM | *** (a fold increase between >1.35 and ≤1.5 is indicated by three stars (***)) | ** (an EC1.5× between >1 μM and ≤3 μM is indicated by two stars (**))
Cc1cn2nc(-c3cc(=O)n4cc(C5=CCN(C6CC6)CC5)ccc4n3)cc2c(C)n1 [Compound 354, 7-(1-cyclopropyl-1,2,3,6-tetrahydropyridin-4-yl)-2-(4,6-dimethylpyrazolo[1,5-a]pyrazin-2-yl)-4H-pyrido[1,2-a]pyrimidin-4-one] | < 0.1 µM | **** (a fold increase between >1.5 and ≤1.65 is indicated by four stars (****)) | *** (an EC1.5× between >0.3 μM and ≤1 μM is indicated by three stars (***))
Cc1cn2nc(-c3cc(=O)n4cc(C5=CCN(C6COC6)CC5)ccc4n3)cc2c(C)n1 [Compound 357, 2-(4,6-dimethylpyrazolo[1,5-a]pyrazin-2-yl)-7-[1-(oxetan-3-yl)-1,2,3,6-tetrahydropyridin-4-yl]-4H-pyrido[1,2-a]pyrimidin-4-one] | 0.1 to 0.3 µM | **** (a fold increase between >1.5 and ≤1.65 is indicated by four stars (****)) | *** (an EC1.5× between >0.3 μM and ≤1 μM is indicated by three stars (***))
CNC1CCN(c2cc(C)c3nc(-c4ccc(OC)c(OC)c4)cc(=O)n3c2)CC1 [Compound 358, 2-(3,4-dimethoxyphenyl)-9-methyl-7-[4-(methylamino)piperidin-1-yl]-4H-pyrido[1,2-a]pyrimidin-4-one] | < 0.1 µM | *** (a fold increase between >1.35 and ≤1.5 is indicated by three stars (***)) | ** (an EC1.5× between >1 μM and ≤3 μM is indicated by two stars (**))
CCNC1CCN(c2cc(C)c3nc(-c4ccc(OC)c(OC)c4)cc(=O)n3c2)CC1 [Compound 359] | < 0.1 µM | *** (a fold increase between >1.35 and ≤1.5 is indicated by three stars (***)) | ** (an EC1.5× between >1 μM and ≤3 μM is indicated by two stars (**))
COc1ccc(-c2cc(=O)n3cc(N4CCC(NC(C)C)CC4)ccc3n2)cc1OC [Compound 361, 2-(3,4-dimethoxyphenyl)-7-[4-(propan-2-ylamino)piperidin-1-yl]-4H-pyrido[1,2-a]pyrimidin-4-one] | 0.1 to 0.3 µM | *** (a fold increase between >1.35 and ≤1.5 is indicated by three stars (***)) | 
Cc1cn2cc(-c3ccc4nc(C5=CCNCC5)cc(=O)n4c3)cc(F)c2n1 [Compound 372, 7-(8-fluoro-2-methylimidazo[1,2-a]pyridin-6-yl)-2-(1,2,3,6-tetrahydropyridin-4-yl)-4H-pyrido[1,2-a]pyrimidin-4-one] | < 0.1 µM | ***** (a fold increase >1.65 is indicated by five stars (*****)) | **** (an EC1.5x≤0.3 μM is indicated by four stars (****))
CCN1CC=C(c2cc(C)c3nc(-c4ccc(OC)c(OC)c4)cc(=O)n3c2)CC1 [Compound 388, 2-(3,4-dimethoxyphenyl)-7-(1-ethyl-1,2,3,6-tetrahydropyridin-4-yl)-9-methyl-4H-pyrido[1,2-a]pyrimidin-4-one] | < 0.1 µM | *** (a fold increase between >1.35 and ≤1.5 is indicated by three stars (***)) | 
COc1ccc(-c2cc(=O)n3cc(N4CCN5CCC[C@@H]5C4)cc(C)c3n2)cc1OC [Compound 414, 2-(3,4-dimethoxyphenyl)-7-[(8aR)-hexahydropyrrolo[1,2-a]pyrazin-2(1H)-yl]-9-methyl-4H-pyrido[1,2-a]pyrimidin-4-one] | < 0.1 µM | ***** (a fold increase >1.65 is indicated by five stars (*****)) | *** (an EC1.5× between >0.3 μM and ≤1 μM is indicated by three stars (***))
Cc1nc2ccc(-c3cc(=O)n4cc(C5=CCNCC5)ncc4n3)cc2o1.Cl [Compound 421, 2-(2-methyl-1,3-benzoxazol-6-yl)-7-(1,2,3,6-tetrahydropyridin-4-yl)-4H-pyrazino[1,2-a]pyrimidin-4-one hydrochloride (1:1)] | < 0.1 µM | *** (a fold increase between >1.35 and ≤1.5 is indicated by three stars (***)) | 
Cc1cn2nc(-c3cc(=O)n4cc(C5CCNCC5)ccc4n3)cc2c(C)n1 [Compound 452, 2-(4,6-dimethylpyrazolo[1,5-a]pyrazin-2-yl)-7-(piperidin-4-yl)-4H-pyrido[1,2-a]pyrimidin-4-one] | < 0.1 µM | ***** (a fold increase >1.65 is indicated by five stars (*****)) | **** (an EC1.5x≤0.3 μM is indicated by four stars (****))
Cn1ncc2cc(-c3cc(=O)n4cc(C5=CCN(CCO)CC5)ccc4n3)ccc21 [Compound 471, 7-[1-(2-hydroxyethyl)-1,2,3,6-tetrahydropyridin-4-yl]-2-(1-methyl-1H-indazol-5-yl)-4H-pyrido[1,2-a]pyrimidin-4-one] | < 0.1 µM | ***** (a fold increase >1.65 is indicated by five stars (*****)) | **** (an EC1.5x≤0.3 μM is indicated by four stars (****))
Cc1cn2nc(-c3cc(=O)n4cc(C5=CCN(C)CC5)cc(C)c4n3)cc2c(C)n1 [Compound 481, 2-(4,6-dimethylpyrazolo[1,5-a]pyrazin-2-yl)-9-methyl-7-(1-methyl-1,2,3,6-tetrahydropyridin-4-yl)-4H-pyrido[1,2-a]pyrimidin-4-one] | < 0.1 µM | **** (a fold increase between >1.5 and ≤1.65 is indicated by four stars (****)) | **** (an EC1.5x≤0.3 μM is indicated by four stars (****))
CCN1CC=C(c2cc(C)c3nc(-c4cc5c(C)nc(C)cn5n4)cc(=O)n3c2)CC1 [Compound 482, 2-(4,6-dimethylpyrazolo[1,5-a]pyrazin-2-yl)-7-(1-ethyl-1,2,3,6-tetrahydropyridin-4-yl)-9-methyl-4H-pyrido[1,2-a]pyrimidin-4-one] | < 0.1 µM | *** (a fold increase between >1.35 and ≤1.5 is indicated by three stars (***)) | * (An EC1.5× for Smn protein expression between >3 μM and ≤10 μM is indicated by one star (*))
Cc1cn2nc(-c3cc(=O)n4cc(C5=CCN(C6CC6)CC5)cc(C)c4n3)cc2c(C)n1 [Compound 483, 7-(1-cyclopropyl-1,2,3,6-tetrahydropyridin-4-yl)-2-(4,6-dimethylpyrazolo[1,5-a]pyrazin-2-yl)-9-methyl-4H-pyrido[1,2-a]pyrimidin-4-one] | < 0.1 µM | ** (a fold increase between >1.2 and ≤1.35 is indicated by two stars (**)) | 
CCN1CC=C(c2ccc3nc(-c4cc5cnc(C)cn5n4)cc(=O)n3c2)CC1 [Compound 485, 7-(1-ethyl-1,2,3,6-tetrahydropyridin-4-yl)-2-(6-methylpyrazolo[1,5-a]pyrazin-2-yl)-4H-pyrido[1,2-a]pyrimidin-4-one] | < 0.1 µM | ***** (a fold increase >1.65 is indicated by five stars (*****)) | **** (an EC1.5x≤0.3 μM is indicated by four stars (****))
